Measured values from ChEMBL document CHEMBL3352736, “Synthesis and preliminary biological evaluation of new antiproliferative aromatic analogues of 1α,25-dihydroxyvitamin D3” (Eur J Med Chem, 2014).

Each molecule was assayed on HL-60 (assay: […] of human HL60 cells incubated for 144 hrs by Wst-1 dye based assay). Conditions: HL-60, 144 h.
Assay type: functional

| IC50 | SMILES |
| --- | --- |
| 63.2 µM | CC(C)CCC[C@@H](C)[C@H]1CC[C@H]2/C(=C/c3ccc(CO)c(CO)c3)CCC[C@]12C |
| 0.6 µM | C[C@H](CC#CC(C)(C)O)[C@H]1CC[C@H]2/C(=C/c3ccc(CO)c(CO)c3)CCC[C@]12C |
| 7.8 µM | C[C@H](CC#CC(C)(C)O)[C@H]1CC[C@H]2/C(=C/c3cccc(C(O)CCO)c3)CCC[C@]12C (some centres not stated) |
| 32.4 µM | CC(C)CCC[C@@H](C)[C@H]1CC[C@H]2/C(=C/c3cccc(CO)c3CO)CCC[C@]12C |
| > 100 µM | C[C@H](CC#CC(C)(C)O)[C@H]1CC[C@H]2/C(=C/c3cccc(CO)c3CO)CCC[C@]12C |
| 5.4 µM | CC(C)CCC[C@@H](C)[C@H]1CC[C@H]2/C(=C/c3cccc(C(O)CCO)c3)CCC[C@]12C (some centres not stated) |
| 1.4 µM | C[C@H](CCCC(C)(C)O)[C@H]1CC[C@H]2/C(=C/c3cccc(C(O)CCO)c3)CCC[C@]12C (some centres not stated) |
